The record followed here is ChEMBL document CHEMBL5380860, “Design, Synthesis, and Antitumor Activity of Potent and Selective EGFR L858R/T790M Inhibitors and Identification of a Combination Therapy to Overcome Acquired Resistance in Models of Non-small-cell Lung Cancer” (J Med Chem, 2023).

A short description of series [1]: Cytotoxicity against human A-431 cells harboring wild type EGFR assessed as reduction in cell viability measured after 72 hrs by MTT assay. It counts as toxicity, cell-based.
The subject of another series is HCC827. Put plainly: Antiproliferative activity against human HCC827 cells harboring EGFR exon del 19 mutant assessed as reduction in cell viability measured after 72 hrs by MTT assay. Type of series: functional, cell-based. Conditions: HCC827, 72 h. On the technique in general: Formazan colour is commonly taken as a measure of viable cells.
Series [2] in a line: Selectivity ratio of IC50 for cytotoxicity against human A549 cells harboring wild type EGFR to IC50 for antiproliferative activity against human NCI-H1975 cells harboring EGFR L858R/T790M mutant. The conditions noted are these: read-out: Ratio IC50. It counts as toxicity, cell-based.
Series [3] can be described thus: Cytotoxicity against human A549 cells harboring wild type EGFR assessed as reduction in cell viability measured after 72 hrs by MTT assay. It counts as toxicity, cell-based.
The subject of another series is NCI-H1975. The series is described as follows: Antiproliferative activity against human NCI-H1975 cells harboring EGFR L858R/T790M mutant assessed as reduction in cell viability measured after 72 hrs by MTT assay. It counts as functional, cell-based. Conditions: NCI-H1975, 72 h.
The nature of series [4]: Selectivity ratio of IC50 for cytotoxicity against human A-431 cells harboring wild type EGFR to IC50 for antiproliferative activity against human NCI-H1975 cells harboring EGFR L858R/T790M mutant. Type of series: toxicity, cell-based. Conditions: read-out: Ratio IC50.
For series [5], the target named is Epidermal growth factor receptor (Homo sapiens, UniProt P00533). The series is described as follows: Inhibition of human wild type partial length EGFR (R669 to V1011 residues) expressed in bacterial expression system by KINOMEscan analysis. It counts as toxicity.
Chain of Epidermal growth factor receptor (Homo sapiens, UniProt P00533) (P00533 whole entry, the tested form may be a part): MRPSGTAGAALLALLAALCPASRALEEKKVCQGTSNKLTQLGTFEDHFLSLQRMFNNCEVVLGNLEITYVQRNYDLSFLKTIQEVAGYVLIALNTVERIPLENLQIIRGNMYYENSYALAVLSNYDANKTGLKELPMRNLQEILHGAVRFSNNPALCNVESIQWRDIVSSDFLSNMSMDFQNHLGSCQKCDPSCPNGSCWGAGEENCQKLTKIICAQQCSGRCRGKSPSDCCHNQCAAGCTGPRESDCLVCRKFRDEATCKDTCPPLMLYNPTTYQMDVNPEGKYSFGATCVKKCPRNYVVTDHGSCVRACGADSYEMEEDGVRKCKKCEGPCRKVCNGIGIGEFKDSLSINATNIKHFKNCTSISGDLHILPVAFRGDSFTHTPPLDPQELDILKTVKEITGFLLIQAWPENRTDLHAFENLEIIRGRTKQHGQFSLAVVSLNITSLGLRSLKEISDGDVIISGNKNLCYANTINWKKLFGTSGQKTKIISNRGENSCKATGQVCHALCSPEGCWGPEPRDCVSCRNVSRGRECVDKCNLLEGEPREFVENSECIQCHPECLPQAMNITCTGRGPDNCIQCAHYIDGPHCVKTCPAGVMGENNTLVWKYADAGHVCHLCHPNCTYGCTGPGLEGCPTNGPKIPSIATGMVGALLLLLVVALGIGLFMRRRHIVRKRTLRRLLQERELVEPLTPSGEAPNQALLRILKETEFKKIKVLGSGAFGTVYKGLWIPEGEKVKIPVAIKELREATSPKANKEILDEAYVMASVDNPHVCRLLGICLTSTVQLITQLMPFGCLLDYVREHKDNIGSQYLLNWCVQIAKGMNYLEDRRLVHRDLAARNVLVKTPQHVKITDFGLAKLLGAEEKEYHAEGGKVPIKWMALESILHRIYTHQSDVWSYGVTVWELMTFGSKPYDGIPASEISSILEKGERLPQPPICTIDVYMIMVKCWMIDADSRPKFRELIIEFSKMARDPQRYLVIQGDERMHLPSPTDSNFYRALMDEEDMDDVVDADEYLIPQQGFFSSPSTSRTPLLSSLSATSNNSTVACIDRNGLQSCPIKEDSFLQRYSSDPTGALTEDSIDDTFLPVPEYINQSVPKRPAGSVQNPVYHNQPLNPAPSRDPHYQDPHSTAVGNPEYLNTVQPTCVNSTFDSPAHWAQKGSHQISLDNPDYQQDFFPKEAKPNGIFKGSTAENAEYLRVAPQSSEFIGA
The target in series [6] is Epidermal growth factor receptor (Homo sapiens, UniProt P00533, L858R/T790M). Put plainly: Inhibition of human partial length EGFR (R669 to V1011 residues) L858R/T790M mutant expressed in mammalian expression system by KINOMEscan analysis.
Chain of Epidermal growth factor receptor (Homo sapiens, UniProt P00533, L858R/T790M) (P00533 25-1210 T790M/L858R limits assumed): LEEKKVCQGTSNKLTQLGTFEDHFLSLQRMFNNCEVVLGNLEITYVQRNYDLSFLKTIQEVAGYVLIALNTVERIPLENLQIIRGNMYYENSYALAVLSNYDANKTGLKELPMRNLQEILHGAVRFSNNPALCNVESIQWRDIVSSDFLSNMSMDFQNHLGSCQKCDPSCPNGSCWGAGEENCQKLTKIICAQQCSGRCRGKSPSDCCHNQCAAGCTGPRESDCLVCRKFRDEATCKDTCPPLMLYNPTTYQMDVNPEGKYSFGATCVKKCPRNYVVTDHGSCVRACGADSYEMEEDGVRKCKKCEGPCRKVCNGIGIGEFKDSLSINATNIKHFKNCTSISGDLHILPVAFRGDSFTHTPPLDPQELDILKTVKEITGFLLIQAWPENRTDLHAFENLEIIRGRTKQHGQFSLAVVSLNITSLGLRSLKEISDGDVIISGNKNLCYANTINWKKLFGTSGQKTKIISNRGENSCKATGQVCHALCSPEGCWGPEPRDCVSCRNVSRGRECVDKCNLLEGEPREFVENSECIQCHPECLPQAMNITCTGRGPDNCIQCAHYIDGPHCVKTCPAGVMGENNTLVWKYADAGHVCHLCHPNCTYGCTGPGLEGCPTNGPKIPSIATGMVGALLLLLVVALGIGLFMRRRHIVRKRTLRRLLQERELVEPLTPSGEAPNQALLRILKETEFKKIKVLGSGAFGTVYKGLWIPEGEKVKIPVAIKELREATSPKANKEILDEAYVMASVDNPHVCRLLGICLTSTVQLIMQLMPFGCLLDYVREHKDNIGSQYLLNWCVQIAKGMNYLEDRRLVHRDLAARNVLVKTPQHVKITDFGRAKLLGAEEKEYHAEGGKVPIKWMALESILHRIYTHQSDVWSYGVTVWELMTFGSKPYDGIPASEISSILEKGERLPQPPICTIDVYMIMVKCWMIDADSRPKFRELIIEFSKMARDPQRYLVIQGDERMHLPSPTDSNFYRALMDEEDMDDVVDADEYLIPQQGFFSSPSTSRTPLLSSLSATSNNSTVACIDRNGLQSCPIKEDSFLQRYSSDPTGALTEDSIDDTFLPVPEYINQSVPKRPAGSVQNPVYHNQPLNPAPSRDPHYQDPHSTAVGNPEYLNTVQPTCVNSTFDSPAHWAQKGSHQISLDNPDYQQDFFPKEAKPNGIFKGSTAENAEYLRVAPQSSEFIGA

Turning to `C=CC(=O)Nc1cccc(Nc2nc(Nc3ccc(N4CCN(CC)CC4)cc3)nc3ccc(Cl)cc23)c1`, the figures for the IC50 at 72 h in series [1] and in series [3] were 0.735 µM and 0.672 µM, respectively. Besides, the values for the IC50 in the series on HCC827 and with NCI-H1975 were 0.012 µM and 0.021 µM, respectively. The selectivity ratio in series [2] came out at 32; in series [4], 35.

With `C=CC(=O)Nc1cccc(Nc2nc(Nc3ccc(N4CCN(CC)CC4)cc3)nc3ccc(F)cc23)c1`, the 50% inhibitory concentration (IC50) at 72 h in series [1] was determined as 1.55 µM; in series [3] it was 1.52 µM. Also, the results for the IC50 in the series on HCC827 and in the series on NCI-H1975 were 0.011 µM and 0.025 µM, respectively. Also, the selectivity ratio was 60 in series [2] and 62 in series [4].

`C=CC(=O)Nc1cccc(Nc2nc(Nc3ccc(N(C)CCN(C)C)cc3)nc3ccc(Cl)cc23)c1`: the IC50 at 72 h turned out to be 2.89 µM in series [1] and 2.3 µM in series [3]. The IC50 with HCC827 worked out at 0.95 µM; in the series on NCI-H1975 it was 1.24 µM.

For the molecule `CN1CCN(c2ccc(Nc3nc(Nc4cccc(NC(=O)/C=C/c5ccccc5)c4)c4cc(Cl)ccc4n3)cc2)CC1`, the IC50 at 72 h was 3.22 µM in series [1] and > 10 µM in series [3]. Further, the IC50 with HCC827 is 1.01 µM; with NCI-H1975, 2.31 µM.

For `C=CC(=O)Nc1cccc(Nc2nc(Nc3ccc(N4CCC(N5CCOCC5)CC4)cc3)nc3ccc(F)cc23)c1`, the values for the IC50 at 72 h in series [1] and in series [3] were 7.59 µM and 5.9 µM, respectively. The results for the IC50 in the series with HCC827 and in the series with NCI-H1975 were 2.3 µM and 1.6 µM, respectively.

For `C=CC(=O)Nc1cccc(Nc2nc(Nc3ccc(N4CCC(N(C)C)CC4)cc3)nc3ccc(Cl)cc23)c1`, the IC50 at 72 h in series [1] was 2.02 µM; in series [3], 1.83 µM. In addition, the IC50 with HCC827 was 0.065 µM; with NCI-H1975 it was 0.174 µM.

As to `C=CC(=O)Nc1cccc(Nc2nc(Nc3ccc(N4CCN(C)CC4)cc3)nc3c(Cl)cccc23)c1`, the IC50 at 72 h in series [1] and in series [3] was > 10 µM throughout. Also, the IC50 in the series on HCC827 was 4.64 µM; with NCI-H1975, 5.63 µM.

Consider `C=CC(=O)Nc1cccc(Nc2nc(Nc3ccc(N4CCN(C)CC4)cc3)nc3c(F)cccc23)c1`, for which the IC50 at 72 h in series [1] and in series [3] was > 10 µM in each case. Also, the IC50 is 2.34 µM in the series with HCC827 and 5.48 µM with NCI-H1975.

Take `C=CC(=O)Nc1cccc(Nc2nc(Nc3ccc(N4CCN(C)CC4)cc3)nc3ccc(C(F)(F)F)cc23)c1`: the IC50 at 72 h in series [1] is 7.64 µM; in series [3], > 10 µM. In addition, the IC50 stood at 4.68 µM in the series on HCC827 and 4.76 µM in the series on NCI-H1975.

For `C=CC(=O)Nc1cccc(Nc2nc(Nc3ccc(N4CCN(C)CC4)cc3)nc3cccc(F)c23)c1`, the values for the IC50 at 72 h in series [1] and in series [3] were 1.84 µM and 2.31 µM, respectively. Moreover, the results for the IC50 with HCC827 and with NCI-H1975 were 0.784 µM and 1 µM, respectively.

For `CCC(=O)Nc1cccc(Nc2nc(Nc3ccc(N4CCN(C)CC4)cc3)nc3ccc(Cl)cc23)c1`, the IC50 at 72 h in series [1] and in series [3] was > 10 µM in each case. In addition, the values for the IC50 with HCC827 and with NCI-H1975 were 6.48 µM and 7.33 µM, respectively.

Regarding `C=CC(=O)Nc1cccc(Nc2nc(Nc3ccc(N4CCN(C)CC4)cc3)nc3ccccc23)c1`, the IC50 at 72 h in series [1] was 6.79 µM; in series [3] it was 9.85 µM. Besides, the IC50 in the series with HCC827 and in the series on NCI-H1975 was 2.32 µM throughout.

For `C=CC(=O)Nc1cccc(Nc2nc(Nc3ccc(N4CCN(C)CC4)cc3)nc3ccc(Cl)cc23)c1`, the results for the half-maximal inhibitory concentration (IC50) at 72 h in series [1] and in series [3] were 1.24 µM and 0.816 µM, respectively. Also, the IC50 in the series on HCC827 was 0.013 µM; in the series with NCI-H1975, 0.017 µM. The selectivity ratio in series [2] was 48; in series [4], 73.

Take `C=CC(=O)Nc1cccc(Nc2nc(Nc3ccc(N4CCN(C)CC4)cc3)nc3c2CCN(C(=O)OC(C)(C)C)C3)c1`: the IC50 at 72 h in series [1] and in series [3] was > 10 µM each time. In addition, the IC50 with HCC827 and in the series with NCI-H1975 was > 10 µM each time.

As to `C=CC(=O)Nc1cccc(Nc2nc(Nc3ccc(N4CCN(C)CC4)c(F)c3)nc3ccc(F)cc23)c1`, the IC50 at 72 h in series [1] is 1.28 µM; in series [3], 2.47 µM. Besides, the 50% inhibitory concentration (IC50) with HCC827 is 0.02 µM; in the series on NCI-H1975, 0.035 µM.

As for `C=CC(=O)Nc1cccc(Nc2nc(Nc3ccc(N4CCC(N5CCOCC5)CC4)cc3OC)nc3ccc(F)cc23)c1`, the IC50 at 72 h in series [1] and in series [3] was > 10 µM throughout. Moreover, the IC50 was found to be 3.93 µM with HCC827 and 4.62 µM with NCI-H1975.

Turning to `C=CC(=O)Nc1cccc(Nc2nc(Nc3ccc(C4CCN(C)CC4)cc3)nc3ccc(Cl)cc23)c1`, the IC50 at 72 h in series [1] and in series [3] was > 10 µM each time. For the same molecule, the IC50 in the series with HCC827 came to 2.69 µM; in the series with NCI-H1975, 3.41 µM.

With `C=CC(=O)Nc1cccc(Nc2nc(Nc3ccc(N4CCN(C)CC4)cc3)nc3cccc(Cl)c23)c1`, the results for the IC50 at 72 h in series [1] and in series [3] were 4.58 µM and 3.88 µM, respectively. In addition, the IC50 turned out to be 0.987 µM in the series with HCC827 and 1.02 µM in the series on NCI-H1975.

Take `C=CC(=O)Nc1cccc(Nc2nc(Nc3ccc(N4CCC(N5CCN(C)CC5)CC4)cc3)nc3ccc(F)cc23)c1`: the IC50 at 72 h in series [1] worked out at 1.69 µM; in series [3], 1.52 µM. Also, the IC50 amounted to 0.018 µM in the series with HCC827 and 0.024 µM in the series with NCI-H1975.

As to `C=CC(=O)Nc1ccc(Nc2nc(Nc3ccc(N4CCN(C)CC4)cc3)nc3ccc(Cl)cc23)cc1`, the IC50 at 72 h in series [1] and in series [3] was > 10 µM each time. For the same molecule, the IC50 with HCC827 is 1.28 µM; in the series with NCI-H1975, 2.32 µM.

As for `C=CC(=O)Nc1cccc(Nc2nc(Nc3ccc(N(C)C)cc3)nc3ccc(Cl)cc23)c1`, the concentration for half-maximal inhibition (IC50) in series [5] is > 10 µM; in series [6] it was 1.8 µM; in the series on NCI-H1975, 2.3 µM. For the same molecule, the IC50 at 72 h in series [3] was > 10 µM.

As to `C=CC(=O)Nc1cccc(Nc2nc(Nc3ccc(N4CCC(N5CCN(C)CC5)CC4)cc3)nc3ccc(Cl)cc23)c1`, the results for the IC50 at 72 h in series [1] and in series [3] were 1.62 µM and 2.1 µM, respectively. In addition, the IC50 with HCC827 was 0.025 µM; with NCI-H1975, 0.028 µM.

With `C=CC(=O)Nc1cccc(Nc2nc(Nc3ccc(N4CCN(C)CC4)cc3OC)nc3ccc(F)cc23)c1`, the IC50 at 72 h is 3.25 µM in series [1] and 1.52 µM in series [3]. Moreover, the IC50 in the series with HCC827 was found to be 0.098 µM; with NCI-H1975, 0.234 µM.

As for `C=CC(=O)Nc1ccccc1Nc1nc(Nc2ccc(N3CCN(C)CC3)cc2)nc2ccc(Cl)cc12`, the 50% inhibitory concentration (IC50) at 72 h in series [1] and in series [3] was > 10 µM throughout. The IC50 came to 1.02 µM in the series with HCC827 and 1.32 µM with NCI-H1975.

In the case of `C=CC(=O)Nc1cccc(Nc2nc(Nc3ccc(N4CCN(C)CC4)cc3)nc3cc(F)ccc23)c1`, the figures for the concentration for half-maximal inhibition (IC50) at 72 h in series [1] and in series [3] were 9.04 µM and 7.81 µM, respectively. Further, the IC50 with HCC827 is 1.04 µM; in the series with NCI-H1975, 2.34 µM.

Take `C=CC(=O)Nc1cccc(Nc2nc(Nc3ccc(N4CCN(C)CC4)cc3)nc3ccc(C)cc23)c1`: the figures for the IC50 at 72 h in series [1] and in series [3] were 1.1 µM and 2.31 µM, respectively. The IC50 in the series on HCC827 came out at 1.55 µM; in the series on NCI-H1975 it was 1.98 µM.

As usually defined, the IC50 is the point on the concentration scale where inhibition reaches its midpoint.
